Data published in PubChem BioAssay AID2060501 (Molecular Pharmacology Branch, DTP, NCI, 2025).

Tested on: 282377-053-R-J1-PDC complex spheroids, viability
Assay: Anticancer human tumor 282377-053-R-J1-PDC patient-derived colon adenocarcinoma cell line growth inhibition [GQUAD]
Conditions: for IC50: curve of first compound; for viability, T/C: stronger effect = lower value
Description: DNA G-quadruplex Stabilizer Agents in Combinations in Complex Spheroids
A high-throughput screen of multi-cell type tumor spheroids was designed to identify active combinations of DNA G-quadruplex stabilizer agents and targeted small molecules. Complex spheroids include a stromal component modeled by human endothelial cells (HUVEC) and fibroblasts modeled by human mesenchymal stem cells (MSCs). The concentration ranges selected for each drug and investigational agent were based upon clinically achievable concentrations if the clinical Cmax of the agent was known.
Compounds. The drugs and investigational agents: pidnarulex (CX-5461; NSC782164), APTO-253 (NSC789042), BRACO-19 (NSC847499), peposertib (NSC802822), ceralasertib (NSC780249), elimusertib (NSC800525), camonsertib (NSC841442), AZD-1390 (NSC803789), olaparib (NSC753686), talazoparib (NSC767125), ART-558 (NSC835418), sotorasib (NSC818433), MRTX-1133 (NSC836407), SN-38 (NSC673596), topotecan (NSC609699), etoposide (NSC141540), doxorubicin (NSC123127), gemcitabine (NSC613327), 5-fluorouracil (NSC19893), paclitaxel (NSC125973), vemurafenib (NSC761431), panobinostat (NSC761190), R-306465 (JNJ-16241199; NSC773264), adavosertib (NSC754352), TP-3654 (NSC805149), carboplatin (NSC241240), KSQ-4279 (NSC840948), and staurosporine (NSC755774) were obtained from the National Cancer Institute (NCI) Developmental Therapeutics Program Chemical Repository (34). The FDA-approved anticancer drug set is available from the NCI Developmental Therapeutics Program. […] The stock solutions were prepared in dimethyl sulfoxide (DMSO, Sigma-Aldrich, St. Louis, MO, cat. D2650) at 800-fold the tested concentration and stored at -70 degrees C prior to their use. All drugs and investigational agents were tested over a range starting from a high concentration at or near the clinical Cmax and decreasing in half-log increments. If the clinical Cmax for an agent had not been determined, the highest concentration tested was 10 microM.
2.3 Cell Culture. All cells were maintained in an incubator at 37 degrees C and 5% CO2 with 95% humidity. The PDC lines were cultured according to standard operating procedures established by the NCI PDMR. All PDCs were thawed and cultured in Matrigel-coated flasks prepared with a working solution of 1X Ham's F-12 nutrient mix, without supplementation (Invitrogen, cat. 11765054), 100 U/mL penicillin-streptomycin (Invitrogen, cat. 15140122), and 2.5% Matrigel (Corning Inc., cat. 354248) for the first three passages. The 857933-349-R-J2-PDC line was cultured in 6C/Colon 1B media, which includes advanced DMEM/F-12 (Thermo Fisher Scientific, cat. 12634028), 10 mM HEPES (Thermo Fisher Scientific, cat. 15630080), 1X GlutaMAX supplement (Thermo Fisher Scientific, cat. 35050061), 0.1 mg/mL primocin (InvivoGen, cat. ant-pm-2), 10% defined fetal bovine serum, heat inactivated (HyClone Laboratories Inc., cat. SH30070.03HI), 50% L-WRN conditioned media (ATCC, cat. CRL-3276), 1.25 mM N-Acetyl-L-cysteine (Sigma-Aldrich, cat. A9165), 10 mM nicotinamide (Sigma-Aldrich, cat. N0636), 1X B-27 supplement (Thermo Fisher Scientific, cat. 17504044), 1X N-2 supplement (Thermo Fisher Scientific, cat. 17502048), 10 microM Y-27632 dihydrochloride (Tocris Bioscience, cat. 1254), and 50 ng/mL human EGF recombinant protein (Thermo Fisher Scientific, cat. PHG0311). The 485176-168-R4-J1-PDC line was cultured in Panc media, which includes all 6C/Colon 1B media components plus 100 ng/mL human FGF-10 (Thermo Fisher Scientific, cat. 100-26), 500 nM SB-431542 (Selleckchem, cat. S1067), and gastrin (Tocris, cat. 3006).
[…]

[1] = second compound 0.0316 µM, first compound 0.000999 µM
[2] = second compound 0.0316 µM, first compound 0.00316 µM
[3] = second compound 0.0316 µM, first compound 0.00999 µM
[4] = second compound 0.0316 µM, first compound 0.0316 µM
[5] = second compound 0.0316 µM, first compound 0.0999 µM
[6] = second compound 0.0316 µM, first compound 0.316 µM
[7] = second compound 0.1 µM, first compound 0.000999 µM
[8] = second compound 0.1 µM, first compound 0.00316 µM
[9] = second compound 0.1 µM, first compound 0.00999 µM
[10] = second compound 0.1 µM, first compound 0.0316 µM
[11] = second compound 0.1 µM, first compound 0.0999 µM
[12] = second compound 0.1 µM, first compound 0.316 µM
[13] = second compound 0.316 µM, first compound 0.000999 µM
[14] = second compound 0.316 µM, first compound 0.00316 µM
[15] = second compound 0.316 µM, first compound 0.00999 µM
[16] = second compound 0.316 µM, first compound 0.0316 µM
[17] = second compound 0.316 µM, first compound 0.0999 µM
[18] = second compound 0.316 µM, first compound 0.316 µM
[19] = second compound 1 µM, first compound 0.000999 µM
[20] = second compound 1 µM, first compound 0.00316 µM
[21] = second compound 1 µM, first compound 0.00999 µM
[22] = second compound 1 µM, first compound 0.0316 µM
[23] = second compound 1 µM, first compound 0.0999 µM
[24] = second compound 1 µM, first compound 0.316 µM
[25] = second compound 3.16 µM, first compound 0.000999 µM
[26] = second compound 3.16 µM, first compound 0.00316 µM
[27] = second compound 3.16 µM, first compound 0.00999 µM
[28] = second compound 3.16 µM, first compound 0.0316 µM
[29] = second compound 3.16 µM, first compound 0.0999 µM
[30] = second compound 3.16 µM, first compound 0.316 µM
[31] = second compound 10 µM, first compound 0.000999 µM
[32] = second compound 10 µM, first compound 0.00316 µM
[33] = second compound 10 µM, first compound 0.00999 µM
[34] = second compound 10 µM, first compound 0.0316 µM
[35] = second compound 10 µM, first compound 0.0999 µM
[36] = second compound 10 µM, first compound 0.316 µM
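Further: spheroids exposed to compounds for 7 days before readout.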
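Wherever viability, T/C is given: percent of vehicle DMSO control viability with 100% = untreated-like growth.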

## CC[C@@]1(O)C(=O)OCc2c1cc1n(c2=O)Cc2cc3c(CN(C)C)c(O)ccc3nc2-1 + CN(C)c1ccc(Nc2c3ccc(NC(=O)CCN4CCCC4)cc3nc3cc(NC(=O)CCN4CCCC4)ccc23)cc1
Second compound 0.0316 µM
  IC50: > 316 nM
Second compound 0.1 µM
  IC50: > 316 nM
Second compound 0.316 µM
  IC50: > 316 nM
Second compound 1 µM
  IC50: > 316 nM
Second compound 3.16 µM
  IC50: > 316 nM
Second compound 10 µM
  IC50: > 316 nM
[1]
  viability, T/C: 108%
[2]
  viability, T/C: 102%
[3]
  viability, T/C: 103%
[4]
  viability, T/C: 118%
[5]
  viability, T/C: 104%
[6]
  viability, T/C: 91%
[7]
  viability, T/C: 92.8%
[8]
  viability, T/C: 103%
[9]
  viability, T/C: 95.2%
[10]
  viability, T/C: 107%
[11]
  viability, T/C: 115%
[12]
  viability, T/C: 90.5%
[13]
  viability, T/C: 105%
[14]
  viability, T/C: 113%
[15]
  viability, T/C: 88.5%
[16]
  viability, T/C: 88.3%
[17]
  viability, T/C: 104%
[18]
  viability, T/C: 101%
[19]
  viability, T/C: 99.3%
[20]
  viability, T/C: 101%
[21]
  viability, T/C: 93%
[22]
  viability, T/C: 89.7%
[23]
  viability, T/C: 108%
[24]
  viability, T/C: 87%
[25]
  viability, T/C: 90.6%
[26]
  viability, T/C: 87.3%
[27]
  viability, T/C: 97.8%
[28]
  viability, T/C: 86.2%
[29]
  viability, T/C: 102%
[30]
  viability, T/C: 82.2%
[31]
  viability, T/C: 88.5%
[32]
  viability, T/C: 85.7%
[33]
  viability, T/C: 94.7%
[34]
  viability, T/C: 79.7%
[35]
  viability, T/C: 77.3%
[36]
  viability, T/C: 97%

## Cc1[nH]c2ccccc2c1CCNCc1ccc(/C=C/C(=O)NO)cc1 + CN(C)c1ccc(Nc2c3ccc(NC(=O)CCN4CCCC4)cc3nc3cc(NC(=O)CCN4CCCC4)ccc23)cc1
Second compound 0.0316 µM
  IC50: 189 nM
Second compound 0.1 µM
  IC50: 189 nM
Second compound 0.316 µM
  IC50: 179 nM
Second compound 1 µM
  IC50: 189 nM
Second compound 3.16 µM
  IC50: 173 nM
Second compound 10 µM
  IC50: 147 nM
[1]
  viability, T/C: 106%
[2]
  viability, T/C: 91.1%
[3]
  viability, T/C: 109%
[4]
  viability, T/C: 110%
[5]
  viability, T/C: 106%
[6]
  viability, T/C: 6.18%
[7]
  viability, T/C: 97.3%
[8]
  viability, T/C: 108%
[9]
  viability, T/C: 114%
[10]
  viability, T/C: 89.3%
[11]
  viability, T/C: 105%
[12]
  viability, T/C: 7.41%
[13]
  viability, T/C: 91.8%
[14]
  viability, T/C: 86.4%
[15]
  viability, T/C: 91.4%
[16]
  viability, T/C: 116%
[17]
  viability, T/C: 99.6%
[18]
  viability, T/C: 3.85%
[19]
  viability, T/C: 90.2%
[20]
  viability, T/C: 98.5%
[21]
  viability, T/C: 108%
[22]
  viability, T/C: 121%
[23]
  viability, T/C: 103%
[24]
  viability, T/C: 7.41%
[25]
  viability, T/C: 92.9%
[26]
  viability, T/C: 95.1%
[27]
  viability, T/C: 101%
[28]
  viability, T/C: 123%
[29]
  viability, T/C: 89.8%
[30]
  viability, T/C: 6.57%
[31]
  viability, T/C: 78.5%
[32]
  viability, T/C: 103%
[33]
  viability, T/C: 94.6%
[34]
  viability, T/C: 92.8%
[35]
  viability, T/C: 73.6%
[36]
  viability, T/C: 3.92%
